Columns and labels:
[1] = biological target: T1, 5-hydroxytryptamine receptor 1D (Homo sapiens, UniProt P28221); test: Maximum stimulation of [35S]GTP-gamma-S, binding to 5-hydroxytryptamine 1D receptor relative to 5-HT; assay type: functional
[2] = biological target: T2, 5-hydroxytryptamine receptor 1B (Homo sapiens, UniProt P28222); test: Displacement of [3H]5-HT from human 5-hydroxytryptamine 1B receptor expressed in CHO cells; assay type: cell-based
[3] = biological target: T1, 5-hydroxytryptamine receptor 1D; test: Displacement of [3H]5-HT from human 5-hydroxytryptamine 1D receptor expressed in CHO cells; assay type: cell-based
[4] = biological target: T1, 5-hydroxytryptamine receptor 1D; test: Stimulation of [35S]GTP-gamma-S, binding in CHO cells expressing 5-hydroxytryptamine 1D receptor; assay type: functional, cell-based
[5] = biological target: T3, 5-hydroxytryptamine receptor 1A (Mus musculus, UniProt Q64264); test: Compound was evaluated for the affinity at 5-hydroxytryptamine 1A receptor
T3 sequence (Q64264 whole entry): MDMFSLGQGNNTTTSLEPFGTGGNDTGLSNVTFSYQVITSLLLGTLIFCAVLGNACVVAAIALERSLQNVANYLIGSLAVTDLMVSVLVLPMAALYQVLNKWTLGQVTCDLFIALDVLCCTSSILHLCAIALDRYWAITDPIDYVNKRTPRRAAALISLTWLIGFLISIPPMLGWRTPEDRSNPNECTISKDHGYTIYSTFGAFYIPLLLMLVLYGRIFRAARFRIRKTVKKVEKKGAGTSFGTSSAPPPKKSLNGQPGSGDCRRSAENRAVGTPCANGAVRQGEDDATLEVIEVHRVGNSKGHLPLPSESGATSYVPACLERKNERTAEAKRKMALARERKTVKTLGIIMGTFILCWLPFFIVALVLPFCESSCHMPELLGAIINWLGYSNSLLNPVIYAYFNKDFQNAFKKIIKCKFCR

[6] = biological target: 5-hydroxytryptamine receptor 1E (Homo sapiens, UniProt P28566); test: Compound was evaluated for the affinity at 5-hydroxytryptamine 1E receptor
[7] = biological target: T2, 5-hydroxytryptamine receptor 1B; test: Compound was evaluated for the affinity at 5-hydroxytryptamine 1B receptor
[8] = biological target: T1, 5-hydroxytryptamine receptor 1D; test: Compound was evaluated for the stimulation of [35S]GTP-gamma-S, binding in CHO cells expressing the 5-hydroxytryptamine 1D receptor.; assay type: functional, cell-based
[9] = biological target: T4, 5-hydroxytryptamine receptor 1F (Homo sapiens, UniProt P30939); test: Compound was evaluated for the affinity at 5-hydroxytryptamine 1F receptor
T4 sequence (P30939 whole entry): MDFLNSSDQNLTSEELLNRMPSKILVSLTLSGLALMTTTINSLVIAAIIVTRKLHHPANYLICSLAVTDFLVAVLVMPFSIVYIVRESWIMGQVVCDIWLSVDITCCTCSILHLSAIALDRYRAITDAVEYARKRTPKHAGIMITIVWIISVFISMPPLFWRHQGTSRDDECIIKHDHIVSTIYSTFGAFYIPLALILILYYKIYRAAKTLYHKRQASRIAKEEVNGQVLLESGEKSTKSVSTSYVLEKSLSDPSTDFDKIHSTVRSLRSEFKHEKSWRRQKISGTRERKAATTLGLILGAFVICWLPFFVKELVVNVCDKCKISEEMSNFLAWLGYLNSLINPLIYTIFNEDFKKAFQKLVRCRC

[10] = biological target: T1, 5-hydroxytryptamine receptor 1D; test: Compound was evaluated for the affinity at 5-hydroxytryptamine 1D receptor
[11] = biological target: 5-hydroxytryptamine receptor 2A (Homo sapiens, UniProt P28223); test: Compound was evaluated for the affinity at 5-hydroxytryptamine 2A receptor
[12] = biological target: T5, 5-hydroxytryptamine receptor 3A (Homo sapiens, UniProt P46098); test: Compound was evaluated for the affinity at 5-hydroxytryptamine 3 receptor
T5 sequence (P46098 whole entry): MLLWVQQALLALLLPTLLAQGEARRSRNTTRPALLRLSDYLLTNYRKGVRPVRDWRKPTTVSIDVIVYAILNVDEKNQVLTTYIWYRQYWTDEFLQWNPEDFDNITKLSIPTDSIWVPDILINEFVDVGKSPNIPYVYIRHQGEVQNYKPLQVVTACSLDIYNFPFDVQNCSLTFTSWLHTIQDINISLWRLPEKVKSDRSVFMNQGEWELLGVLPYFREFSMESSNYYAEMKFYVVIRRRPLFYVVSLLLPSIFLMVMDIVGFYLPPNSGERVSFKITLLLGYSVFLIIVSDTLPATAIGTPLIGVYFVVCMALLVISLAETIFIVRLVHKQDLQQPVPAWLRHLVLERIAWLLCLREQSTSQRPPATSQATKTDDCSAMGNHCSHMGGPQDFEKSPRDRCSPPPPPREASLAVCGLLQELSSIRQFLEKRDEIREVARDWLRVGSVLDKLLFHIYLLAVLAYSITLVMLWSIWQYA

[13] = biological target: T6, 5-hydroxytryptamine receptor 2C (Homo sapiens, UniProt P28335); test: Compound was evaluated for the affinity at 5-hydroxytryptamine 2C receptor
T6 sequence (P28335 whole entry): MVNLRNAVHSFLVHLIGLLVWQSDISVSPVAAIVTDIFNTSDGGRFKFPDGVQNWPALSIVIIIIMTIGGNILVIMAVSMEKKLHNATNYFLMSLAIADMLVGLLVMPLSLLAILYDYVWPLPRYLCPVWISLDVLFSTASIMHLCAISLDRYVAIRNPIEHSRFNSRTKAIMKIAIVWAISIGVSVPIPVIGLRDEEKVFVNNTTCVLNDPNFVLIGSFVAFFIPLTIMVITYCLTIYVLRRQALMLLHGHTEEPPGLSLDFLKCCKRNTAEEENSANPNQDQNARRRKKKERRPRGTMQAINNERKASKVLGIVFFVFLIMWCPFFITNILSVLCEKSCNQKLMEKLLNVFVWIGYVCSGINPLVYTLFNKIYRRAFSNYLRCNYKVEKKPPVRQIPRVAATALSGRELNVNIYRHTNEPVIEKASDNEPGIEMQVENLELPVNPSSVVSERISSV

T1 sequence (P28221 whole entry): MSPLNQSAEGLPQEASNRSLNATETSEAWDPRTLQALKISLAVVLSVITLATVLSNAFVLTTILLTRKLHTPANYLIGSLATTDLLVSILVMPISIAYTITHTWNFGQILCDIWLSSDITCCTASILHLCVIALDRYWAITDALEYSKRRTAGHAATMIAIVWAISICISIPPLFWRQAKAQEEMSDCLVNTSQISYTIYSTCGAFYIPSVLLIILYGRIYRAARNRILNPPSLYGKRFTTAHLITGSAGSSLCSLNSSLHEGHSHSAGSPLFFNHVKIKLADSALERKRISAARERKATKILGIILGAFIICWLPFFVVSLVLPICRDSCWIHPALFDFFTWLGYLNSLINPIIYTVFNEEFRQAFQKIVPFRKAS
T2 sequence (P28222 whole entry): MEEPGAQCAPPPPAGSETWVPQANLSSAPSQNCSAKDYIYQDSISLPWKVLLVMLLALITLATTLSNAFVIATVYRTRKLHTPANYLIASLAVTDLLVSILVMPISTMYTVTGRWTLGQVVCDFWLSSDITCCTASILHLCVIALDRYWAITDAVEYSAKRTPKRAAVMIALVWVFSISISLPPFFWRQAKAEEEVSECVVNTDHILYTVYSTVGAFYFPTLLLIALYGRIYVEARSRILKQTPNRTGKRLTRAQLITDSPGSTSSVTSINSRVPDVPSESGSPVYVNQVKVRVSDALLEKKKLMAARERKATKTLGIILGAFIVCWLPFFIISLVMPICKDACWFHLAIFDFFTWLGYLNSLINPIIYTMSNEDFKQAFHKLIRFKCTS
Sequence of 5-hydroxytryptamine receptor 1E (P28566 whole entry): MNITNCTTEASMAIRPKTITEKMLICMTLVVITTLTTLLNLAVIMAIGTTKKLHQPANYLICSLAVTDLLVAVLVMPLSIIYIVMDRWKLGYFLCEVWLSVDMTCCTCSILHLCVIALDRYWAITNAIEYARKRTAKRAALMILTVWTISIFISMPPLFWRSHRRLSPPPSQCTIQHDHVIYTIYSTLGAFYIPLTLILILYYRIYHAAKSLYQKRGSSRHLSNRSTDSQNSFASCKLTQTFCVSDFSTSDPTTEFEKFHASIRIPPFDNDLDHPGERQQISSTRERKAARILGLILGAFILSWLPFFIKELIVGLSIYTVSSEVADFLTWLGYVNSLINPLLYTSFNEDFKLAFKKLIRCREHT
Sequence of 5-hydroxytryptamine receptor 2A (P28223 whole entry): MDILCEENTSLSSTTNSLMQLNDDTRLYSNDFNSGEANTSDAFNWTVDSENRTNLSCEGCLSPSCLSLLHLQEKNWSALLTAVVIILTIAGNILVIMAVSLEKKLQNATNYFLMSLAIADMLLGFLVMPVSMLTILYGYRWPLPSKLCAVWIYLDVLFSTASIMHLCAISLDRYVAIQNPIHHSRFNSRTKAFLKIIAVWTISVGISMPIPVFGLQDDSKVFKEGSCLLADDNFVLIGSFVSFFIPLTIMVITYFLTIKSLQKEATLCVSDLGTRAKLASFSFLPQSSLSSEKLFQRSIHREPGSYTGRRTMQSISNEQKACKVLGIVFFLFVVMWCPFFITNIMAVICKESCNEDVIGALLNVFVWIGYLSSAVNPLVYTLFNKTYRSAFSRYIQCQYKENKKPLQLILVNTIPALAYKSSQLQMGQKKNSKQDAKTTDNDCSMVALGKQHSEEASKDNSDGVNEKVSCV

SMILES | Efficacy [1] [%] | IC50 [2] [µM] | IC50 [3] [µM] | EC50 [4] [µM] | also measured
c1cc2[nH]cc(CCN3CCCC3)c2cc1-n1cnnc1 | 120 |  |  |  | 
Fc1cc(F)cc(CCN2CCN(CCCc3c[nH]c4ccc(-n5cnnc5)cc34)CC2)c1 | 86 | 0.047 | 0.0007 | 0.0006 | 
Fc1ccc(CCN2CCN(CCCc3c[nH]c4ccc(-n5cnnc5)cc34)CC2)cc1 | 81 | 0.12 | 0.0008 | 0.0015 | 
Fc1ccccc1CCN1CCN(CCCc2c[nH]c3ccc(-n4cnnc4)cc23)CC1 | 80 | 0.1 | 0.0006 | 0.0015 | 
Fc1ccc(CCN2CCN(CCCc3c[nH]c4ccc(-n5cnnc5)cc34)CC2)cc1F | 86 | 0.098 | 0.001 | 0.0019 | 
CNS(=O)(=O)Cc1ccc2[nH]cc(CCN(C)C)c2c1 |  |  |  |  | IC50 [5]: 0.45 µM; IC50 [6]: 2.4 µM
CC(=O)Nc1cccc(CCN2CCN(CCCc3c[nH]c4ccc(-n5cnnc5)cc34)CC2)c1 | 96 | 0.17 | 0.0018 | 0.0016 | 
CN1CCN(CCCc2c[nH]c3ccc(-n4cnnc4)cc23)CC1 | 104 | 0.43 | 0.035 | 0.053 | 
CN1CCN(CCc2c[nH]c3ccc(-n4cnnc4)cc23)CC1 | 63 | 0.31 | 0.14 | 0.08 | 
c1ccc(CCN2CCN(CCCc3c[nH]c4ccc(-n5cnnc5)cc34)CC2)cc1 | 65 | 0.17 | 0.0014 | 0.0009 | 
c1ccc(CN2CCN(CCCc3c[nH]c4ccc(-n5cnnc5)cc34)CC2)cc1 | 56 | 0.0081 | 0.0002 | 0.0001 | 
Fc1cccc(CCN2CCN(CCCc3c[nH]c4ccc(-n5cnnc5)cc34)CC2)c1 |  | 0.075 | 0.0006 |  | IC50 [5]: 0.055 µM; IC50 [7]: 0.075 µM; EC50 [8]: 0.0012 µM; IC50 [6]: > 10 µM; IC50 [9]: 3.8 µM; IC50 [10]: 0.0006 µM; IC50 [11]: 0.37 µM; IC50 [12]: > 10 µM; IC50 [13]: 9 µM
CC(=O)Nc1ccc(CCN2CCN(CCCc3c[nH]c4ccc(-n5cnnc5)cc34)CC2)cc1 | 85 | 0.251 | 0.0013 | 0.0019 | 

— ChEMBL document CHEMBL1130196, “Selective, orally active 5-HT1D receptor agonists as potential antimigraine agents” (J Med Chem, 1997)
